Here are results for four compounds from US5112805A, “Pharmaceutical preparation for promoting epithelial healing and prevention of epithelial destruction” (Labsystems, Oy, priority 1989, dated 1992).

Entries after “also recorded” stand apart in the source; their conditions may differ.

In series [1] the test system is proteolytic plasmin-like activity in tear fluid. The experiment in a line: Radial caseinolysis assay of tear fluid proteolytic activity with inhibitors added. The class given is biochemical, human. Here is the method: (§1) Assay of proteolytic activity in tear fluids. Tear fluid was collected into a glass capillary. Proteolytic activity, using an 8 ul specimen of tear fluid, was measured by the radial caseinolysis procedure^23, using agarose gel and bovine milk casein as substrate. Human plasmin (20 casein units per mg; Kabi Diagnostica, Stockholm, Sweden) was used as standard. The results are expressed as micrograms of plasmin-like activity per milliliter tear fluid. Plasminogen activator levels were determined according to Saksela^23 using plasminogen-containing casein-agarose gels and urokinase (50 000 Plough units/ml; Calbiochem) as standard.
Proteinase inhibitors-Aprotinin (20 000 IU/ml Trasylol®, Bayer), L-cysteine (0.15M; E. Merck), heparin (2500 IU/ml Medica).

For the next series, the system named is corneal lesions. The series can be described thus: Topical treatment of patients with corneal lesions, clinical response. It counts as in vivo, human. Conditions: for clinical effect: used at first in patients 1, 3 and 4; for therapeutic effect: patient with bilateral acid corrosion. Here is the method: Patients and control individuals. All patients reported here were treated in the Eye Clinic of the Helsinki Central University Hospital.
(§2) Proteinase inhibitor and fibronectin treatment. The patients received topical aprotinin (20 or 40 IU/ml), diluted from the stock preparation in sterile saline or commercially obtained wetting agent (Liquifilm Tears; Allergan), 1-2 drops (50 ul each) at 3 hour intervals. When applied, fibronectin (200 ug/ml) was administered 2-3 minutes after aprotinin treatment, also using 1-2 drops at a time.
After the success with this index case and similar experience with the first few additional patients the following therapeutic regimen was adopted. Patients with corneal ulcers were first treated for four days with conventional therapy including antimicrobial drugs according to laboratory findings or clinical picture. If no response was seen and if proteolytic activity was detected in the tear fluid, aprotinin therapy was initiated. In some cases with low activity in the initial or later tear fluid specimens, aprotinin was combined with topical fibronectin. In addition, in certain patients, such as in a patient with bilateral acid corrosion, no proteolytic activity was detected immediately after injury. […] In zymographic analysis the proteinase in the patient's tear fluid specimen comigrated with plasmin (data not shown). […] This patient will be described in detail elsewhere. However, a large proportion of patients with therapy-resistant corneal lesions of various categories (Table 2) had proteolytic activity and the above regimen was followed.

Series [2] has as its system tear fluid plasmin-like activity. The experiment in a line: Tear fluid plasmin-like activity of patients during therapy. It counts as in vivo, human. The procedure:
as §1, §2

The nature of series [3]: Side effects of aprotinin eye drops in patients. It counts as in vivo, human. The procedure: as §2
The next series deals with epithelium. Conditions: published report on clinical use of fibronectin; cited from earlier work.
Where [4] appears, read: Patient 1 tear fluid (11.6 without inhibitor), aprotinin 20 IU/ml, L-cysteine 0.075 M, heparin 1250 IU/ml.
Setting [5] is: Patient 2 tear fluid (7.0 without inhibitor), aprotinin 20 IU/ml, L-cysteine 0.075 M, heparin 1250 IU/ml.
Where [6] appears, read: Patient 8 tear fluid (6.0 without inhibitor), aprotinin 10 IU/ml, L-cysteine 0.075 M, heparin 1250 IU/ml.
The mark [7] stands for this setting: Patient 9 tear fluid (6.3 without inhibitor), aprotinin 10 IU/ml, L-cysteine 0.075 M, heparin 1250 IU/ml.
Setting [8] is: tear fluid of patients 1, 2, 8 and 9 in vitro.
The mark [9] stands for this setting: tear fluids of patients with corneal lesions, in the assay.

As to `N[C@@H](CS)C(=O)O` [L-cysteine], the Proteolytic plasmin-like activity in series [1] (setting [4]) came to 10.1 µg/mL; in series [1] (setting [5]), 7.2 µg/mL; in series [1] (setting [6]), 4.9 µg/mL; in series [1] (setting [7]), 5.5 µg/mL. For the same compound, the “effect on the proteolytic activity of tear fluid” value (from here on “effect … of tear fluid”) in series [1] (setting [8]) was “very little effect”; in series [1] (setting [9]) it was “minimal inhibitory effect”. Moreover, in the series on corneal lesions (patient 4, topical L-cysteine therapy, no detectable microbial pathogens), the “course of cornea during therapy” value was “perforated spontaneously”. Moreover, the clinical effect entry with corneal lesions is “little or no clinical effect”.

For the compound aprotinin, the Proteolytic plasmin-like activity in series [1] (setting [4]) is less than 0.1 µg/mL; in series [1] (setting [5]), less than 0.1 µg/mL; in series [1] (Patient 7 tear fluid (7.6 without inhibitor), aprotinin 10 IU/ml) it was less than 0.1 µg/mL; in series [1] (setting [6]), less than 0.1 µg/mL; in series [1] (setting [7]), less than 0.1 µg/mL; in series [1] (Patient 15 tear fluid (4.2 without inhibitor), aprotinin 10 IU/ml), less than 0.1 µg/mL. The “effect … of tear fluid” value in series [1] (setting [9]) was “can be inhibited”; in series [1] (tear fluids of patients with corneal lesions, in the assay, listed as Aprotinin), “inhibit effectively”. In addition, the response to therapy result is given as “resulted in corneal epithelialization; also recorded: responded quickly” in the series with corneal lesions (all fifteen patients with proteolytic activity in tear fluid and corneal lesion, aprotinin, in some cases combined with fibronectin); “clear improvement” in the series with corneal lesions (patient 13, herpes keratitis, new erosion, with topical acyclovir, antibiotics). Moreover, the time to response with corneal lesions (patient 1, novel therapy (aprotinin with fibronectin), after nine weeks of unsuccessful conventional treatment) was not above 24 h. Further, the “Recovery in” value in the series with corneal lesions (patient 2, disciform keratitis, recurrent erosion for 1 week) came out at 4 days. For the same compound, the clinical response result is given as “improved rapidly” with corneal lesions (patient 3, corneal erosion caused by soft contact lens, proteinase inhibitor therapy); “led to healing” with corneal lesions (patient 4, corneal perforation, soft contact lens and antibiotics together with aprotinin); “successfully treated” in the series on corneal lesions (patient 7, Mooren's ulcer, 20 IU/ml, later (20 Jan on) 40 IU/ml hourly). The “Complete epithelialization in” value in the series on corneal lesions (patient 3, soft contact lens user, recurrent corneal erosion) came to 48 h; in the series on corneal lesions (patient 12, absc. corneae, Moraxella, antibiotics and aprotinin), 2 weeks. For the same compound, the “duration of corneal healing” value in the series with corneal lesions (patient 4, keratitis sicca, corneal perforation and ulcer) is reported as “six”. The “ulcer area relative to original area” value with corneal lesions (patient 7, Mooren's ulcer, within a month after onset of aprotinin therapy) is recorded as “regressed into a third of its original area”. For the same compound, in the series on corneal lesions (patient 8, ulcus corneae, S. aureus, after onset of aprotinin), the “complete healing in” value amounted to 12 days. Besides, the epithelialization result in the series on corneal lesions (patient 9, deep corneal ulcer, topical antibiotics and aprotinin) was “rapid”. The “epithelialization in” value with corneal lesions (patient 10, giant papillary conjunctivitis) was “one”. The “condition improved in” value with corneal lesions (patient 14, blepharitis chronica) is given as 1 week; in the series with corneal lesions (patient 15, conjunctivitis vernalis, punctate erosion), 5 days. In addition, in the series on corneal lesions (aprotinin therapy after failure of fibronectin), the therapeutic effect result was “rapid epithelization”. In addition, the Tearfluid plasmin-like activity in series [2] (patient 2, 25 Nov, 7.0 on 1 Nov) was less than 0.1 µg/mL; in series [2] (patient 3, 4 Dec, 6.8 on 16 Nov) it was less than 0.1 µg/mL; in series [2] (patient 4, 20 Dec, 5.5 on 25 Nov), less than 0.1 µg/mL; in series [2] (patient 7, 10 Jan, 7.6 on 8 Jan, aprotinin 20 IU/ml from Jan 8), 4.7 µg/mL; in series [2] (patient 7, 16 Jan, aprotinin 20 IU/ml from Jan 8), 12.0 µg/mL; in series [2] (patient 7, 20 Jan, aprotinin 20 IU/ml from Jan 8) it was 12.5 µg/mL. The Tearfluid plasmin-like activity in series [2] (patient 7, 22 Jan, aprotinin 40 IU/ml hourly from 20 Jan, fibronectin added Jan 22) was 3.3 µg/mL; in series [2] (patient 8, 14 Feb) it was less than 0.1 µg/mL; in series [2] (patient 8, 29 Jan, 6.0 on 6 Jan, 4.5 on 8 Jan during antibiotic therapy) it was 0.5 µg/mL; in series [2] (patient 8, 31 Jan), 0.5 µg/mL; in series [2] (patient 9, 13 Feb), less than 0.1 µg/mL; in series [2] (patient 9, 20 Jan, 6.3 on 16 Jan, with topical antibiotics) it was 3.0 µg/mL. The Tearfluid plasmin-like activity was less than 0.1 µg/mL in series [2] (patient 9, 30 Jan); 2.4 µg/mL in series [2] (patient 10, 22 Jan, 10.3 on 20 Jan); less than 0.1 µg/mL in series [2] (patient 10, 24 Jan); less than 0.1 µg/mL in series [2] (patient 11, 9 Feb); 1.9 µg/mL in series [2] (patient 11, 30 Jan, 3.1 on 21 Jan); less than 0.1 µg/mL in series [2] (patient 12, 6 Feb). The Tearfluid plasmin-like activity was 12.4 µg/mL in series [2] (patient 12, 24 Jan, 20.0 on 22 Jan, with antibiotics); 0.5 µg/mL in series [2] (patient 13, 3 Feb, 6.3 on 31 Jan, with topical acyclovir, antibiotics); less than 0.1 µg/mL in series [2] (patient 13, 19 Feb). In addition, the “outcome and complications of longest treatment” value in series [3] (aprotinin eye drops, patient 4 (dry eyes, spontaneous perforation), five weeks) is given as “good results without corneal or other complications”. For the same compound, the side effects result in series [3] (topical aprotinin therapy, patients) is given as “No side effects”.

On to fibronectin, for which the “appearance of corneal erosion” value with corneal lesions (patient 1, topical fibronectin alone from Oct. 16, one day later) is “altered appearance”. Moreover, the therapeutic effect result was “no such therapeutic effect was observed” in the series with corneal lesions (left eye, fibronectin applied 7 days later, tear fluid with plasmin-like activity); “clear beneficial effect and epithelial healing” with corneal lesions (right eye, initial topical fibronectin, no proteolytic activity detected). The “time to healing of the epithelium” value in the series on epithelium is “about 20 days”.

For heparin, the Proteolytic plasmin-like activity in series [1] (setting [4]) stood at 11.9 µg/mL; in series [1] (setting [5]), 7.8 µg/mL; in series [1] (setting [6]) it was 7.2 µg/mL; in series [1] (setting [7]), 6.8 µg/mL. Moreover, the “effect … of tear fluid” value in series [1] (setting [8]) is recorded as “very little effect”; in series [1] (setting [9]), “no effect”. Further, in the series with corneal lesions, the clinical effect entry is on record as “little or no clinical effect”.
